From PubChem BioAssay (NCI)
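How tested: cells in 96-well plates exposed to compound for 48 hours at five concentrations. At the GI50, growth is halved. The concentration for full growth arrest is given as TGI.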

How the values were obtained:
Test in all cases: NCI-60 cell line screen, 48 h
A498 renal = tested on: A498 renal
A549 NSCLC = tested on: A549 NSCLC
EKVX NSCLC = tested on: EKVX NSCLC
MOLT-4 leukemia = tested on: MOLT-4 leukemia
SF-268 CNS = tested on: SF-268 CNS
SF-539 CNS = tested on: SF-539 CNS
SN12C renal = tested on: SN12C renal
SR leukemia = tested on: SR leukemia
U251 CNS = tested on: U251 CNS
UO-31 renal = tested on: UO-31 renal

Compound | GI50 (A498 renal) [µM] | TGI (A498 renal) [µM] | GI50 (A549 NSCLC) [µM] | TGI (A549 NSCLC) [µM] | GI50 (EKVX NSCLC) [µM] | TGI (EKVX NSCLC) [µM] | GI50 (MOLT-4 leukemia) [µM] | TGI (MOLT-4 leukemia) [µM] | GI50 (SF-268 CNS) [µM] | TGI (SF-268 CNS) [µM] | GI50 (SF-539 CNS) [µM] | TGI (SF-539 CNS) [µM] | GI50 (SN12C renal) [µM] | TGI (SN12C renal) [µM] | GI50 (SR leukemia) [µM] | TGI (SR leukemia) [µM] | GI50 (U251 CNS) [µM] | TGI (U251 CNS) [µM] | GI50 (UO-31 renal) [µM] | TGI (UO-31 renal) [µM]
O=[n+]1c(CBr)c(CBr)n([O-])c2ccccc21 | 41.3 | > 100 | 17.4 | 35.6 | 15.3 | 29 | 3.62 | 14.7 | 15.9 | 33.6 | 13.3 | 26.3 | 11 | 24.3 | 2.82 | > 100 | 14.5 | 29.8 | 1.44 | 3
O=C(O/N=C1/CCC/C1=C\c1ccccc1)c1ccc([N+](=O)[O-])cc1 | – | > 100 | – | > 100 | – | > 100 | – | > 100 | – | > 100 | – | > 100 | – | > 100 | – | > 100 | – | > 100 | – | 74.9
C1CN2N3CCCC23C1 (stereo not given) | – | > 100 | – | > 100 | – | > 100 | – | > 100 | – | > 100 | – | > 100 | – | > 100 | – | > 100 | – | > 100 | – | > 100
CCOc1ccc2nc(NC(=O)/C(CC(=O)CC(C3=C(O)c4ccccc4CC3=O)c3ccccc3)=N\O)sc2c1 (stereo not given) | – | > 100 | – | > 100 | – | > 100 | – | > 100 | – | > 100 | – | > 100 | – | > 100 | – | > 100 | – | > 100 | – | > 100
COc1cc2c(c(O)c1C)C(=O)C(Cl)=CC2=O | – | 33.9 | – | 55.8 | – | 23.3 | – | 8.66 | – | 40 | – | 33.5 | – | 27.6 | – | 4.37 | – | 47.3 | – | 21.6
O=C1/C(=C/c2ccccc2)CN(C(=O)Oc2ccc(Cl)cc2)C/C1=C\c1ccccc1 | – | 7.81 | – | 16.6 | – | 26.7 | – | 8.63 | – | 8.77 | – | 5.92 | – | 3.88 | – | 4.33 | – | 2.97 | – | 15.5
CC[n+]1ccc2c(c1)C(=O)c1nccc3c1c-2nc1ccccc13 | 0.874 | 6.13 | 0.958 | 13.5 | 3.53 | 8.92 | 1.27 | 7.31 | 0.34 | 3.63 | 0.489 | 1.47 | 0.142 | 0.66 | 0.339 | 12.4 | 0.35 | 1.28 | 0.948 | 8.42
O=C1c2ccccc2C(=O)c2c1ccc1[nH]c(CCl)nc21 | 1.27 | 7.06 | 2.81 | 10.2 | 2.59 | 10.7 | 1.68 | 8.04 | 2.22 | 8.1 | 3.16 | 11.6 | 2.08 | 4.87 | 2.25 | 13.8 | 2.21 | 6.56 | 2.72 | 9.22
CC1(C)N=C(N)N=C(N)N1c1ccc(CCCCc2ccc(S(=O)(=O)F)cc2Cl)c(Cl)c1 | – | 261 | – | 200 | – | 161 | – | 10.6 | – | 29.3 | – | 13.9 | – | 90.3 | – | > 500 | – | 53.2 | – | 224
CCCCCCCCCCCCCCC1OC(=O)c2ccccc21 (stereo not given) | – | > 100 | – | > 100 | – | > 100 | – | > 100 | – | > 100 | – | > 100 | – | 75.9 | – | > 100 | – | > 100 | – | > 100
